Measured values published in the supplement of paper PMC10307832.

What was measured:
Test in all cases: relative viability (nuclei count vs DMSO), 5 days (fraction); higher = more cells survive
Everolimus + Lapatinib = compound: CO[C@H]1C[C@@H]2CC[C@@H](C)[C@@](O)(O2)C(=O)C(=O)N2CCCC[C@H]2C(=O)O[C@H]([C@H](C)C[C@@H]2CC[C@@H](OCCO)[C@H](OC)C2)CC(=O)[C@H](C)/C=C(\C)[C@@H](O)[C@@H](OC)C(=O)[C@H](C)C[C@H](C)/C=C/C=C/C=C/1C [Everolimus] + CS(=O)(=O)CCNCc1ccc(-c2ccc3ncnc(Nc4ccc(OCc5cccc(F)c5)c(Cl)c4)c3c2)o1 [Lapatinib] (partner 2 µM)
Summary of the method: (§1)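 The day after seeding in 1536-well plates, lung cancer cell lines were treated by pin tool with a single drug, or with a fixed anchor-drug dose together with five library-drug doses (not always all listed) in √10 steps. After 5 days, a combined fix-and-stain solution (final 0.05% Triton X-100, 1% formaldehyde, 1 ug/ml Hoechst) was added. Nuclei counted on 4× images gave relative viability as treated counts over vehicle counts, reported as the median of duplicate plates.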

Everolimus + Crizotinib = compound: CO[C@H]1C[C@@H]2CC[C@@H](C)[C@@](O)(O2)C(=O)C(=O)N2CCCC[C@H]2C(=O)O[C@H]([C@H](C)C[C@@H]2CC[C@@H](OCCO)[C@H](OC)C2)CC(=O)[C@H](C)/C=C(\C)[C@@H](O)[C@@H](OC)C(=O)[C@H](C)C[C@H](C)/C=C/C=C/C=C/1C [Everolimus] + C[C@@H](Oc1cc(-c2cnn(C3CCNCC3)c2)cnc1N)c1c(Cl)ccc(F)c1Cl [Crizotinib] (partner 1 µM)
Summary of the method: as §1

Everolimus + Tozasertib = compound: CO[C@H]1C[C@@H]2CC[C@@H](C)[C@@](O)(O2)C(=O)C(=O)N2CCCC[C@H]2C(=O)O[C@H]([C@H](C)C[C@@H]2CC[C@@H](OCCO)[C@H](OC)C2)CC(=O)[C@H](C)/C=C(\C)[C@@H](O)[C@@H](OC)C(=O)[C@H](C)C[C@H](C)/C=C/C=C/C=C/1C [Everolimus] + Cc1cc(Nc2cc(N3CCN(C)CC3)nc(Sc3ccc(NC(=O)C4CC4)cc3)n2)n[nH]1 [Tozasertib] (partner 0.1 µM)
Summary of the method: as §1

Everolimus + Decitabine = compound: CO[C@H]1C[C@@H]2CC[C@@H](C)[C@@](O)(O2)C(=O)C(=O)N2CCCC[C@H]2C(=O)O[C@H]([C@H](C)C[C@@H]2CC[C@@H](OCCO)[C@H](OC)C2)CC(=O)[C@H](C)/C=C(\C)[C@@H](O)[C@@H](OC)C(=O)[C@H](C)C[C@H](C)/C=C/C=C/C=C/1C [Everolimus] + Nc1ncn([C@H]2C[C@H](O)[C@@H](CO)O2)c(=O)n1 [Decitabine] (partner 2 µM)
Summary of the method: as §1

Cell Line | relative viability (Everolimus + Lapatinib; first compound 0.01 µM) | relative viability (Everolimus + Lapatinib; first compound 0.03162 µM) | relative viability (Everolimus + Lapatinib; first compound 0.1 µM) | relative viability (Everolimus + Lapatinib; first compound 0.3162 µM) | relative viability (Everolimus + Lapatinib; first compound 1 µM) | relative viability (Everolimus + Crizotinib; first compound 0.01 µM) | relative viability (Everolimus + Crizotinib; first compound 0.03162 µM) | relative viability (Everolimus + Crizotinib; first compound 0.1 µM) | relative viability (Everolimus + Crizotinib; first compound 0.3162 µM) | relative viability (Everolimus + Crizotinib; first compound 1 µM) | relative viability (Everolimus + Tozasertib; first compound 0.01 µM) | relative viability (Everolimus + Tozasertib; first compound 0.03162 µM) | relative viability (Everolimus + Tozasertib; first compound 0.1 µM) | relative viability (Everolimus + Tozasertib; first compound 0.3162 µM) | relative viability (Everolimus + Tozasertib; first compound 1 µM) | relative viability (Everolimus + Decitabine; first compound 0.01 µM) | relative viability (Everolimus + Decitabine; first compound 0.03162 µM) | relative viability (Everolimus + Decitabine; first compound 0.1 µM) | relative viability (Everolimus + Decitabine; first compound 0.3162 µM) | relative viability (Everolimus + Decitabine; first compound 1 µM)
NCI-H727 | 0.435 | 0.543 | 0.402 | 0.527 | 0.561 | 0.47 | 0.443 | 0.553 | 0.49 | 0.496 | 0.525 | 0.562 | 0.505 | 0.713 | 0.53 | 0.73 | 0.594 | 0.591 | 0.642 | 0.617
NCI-H838 | 0.517 | 0.535 | 0.48 | 0.439 | 0.625 | 0.581 | 0.548 | 0.416 | 0.525 | 0.357 | 0.266 | 0.258 | 0.27 | 0.237 | 0.245 | 0.435 | 0.444 | 0.356 | 0.384 | 0.392
NCI-H1355 | 0.471 | 0.44 | 0.363 | 0.53 | 0.436 | 0.524 | 0.462 | 0.46 | 0.426 | 0.438 | 0.497 | 0.398 | 0.355 | 0.413 | 0.32 | 0.353 | 0.3 | 0.305 | 0.318 | 0.261
NCI-H1437 | 0.642 | 0.55 | 0.464 | 0.508 | 0.417 | 0.969 | 0.903 | 0.782 | 0.873 | 0.648 | 0.421 | 0.51 | 0.411 | 0.403 | 0.361 | 0.597 | 0.483 | 0.59 | 0.461 | 0.466
NCI-H1650 | 0.615 | 0.707 | 0.645 | 0.742 | 0.489 | 0.922 | 1.06 | 0.918 | 1 | 0.719 | 0.46 | 0.424 | 0.416 | 0.445 | 0.482 | 0.472 | 0.389 | 0.556 | 0.406 | 0.573
NCI-H1651 | 0.537 | 0.391 | 0.497 | 0.533 | 0.521 | 0.846 | 0.786 | 0.735 | 0.708 | 0.566 | 0.616 | 0.542 | 0.383 | 0.485 | 0.366 | 0.532 | 0.383 | 0.464 | 0.489 | 0.484
NCI-H1666 | 0.459 | 0.445 | 0.335 | 0.45 | 0.475 | 0.878 | 0.776 | 0.629 | 0.877 | 0.654 | 0.571 | 0.625 | 0.559 | 0.668 | 0.527 | 0.676 | 0.553 | 0.639 | 0.75 | 0.672
